Experimental data as given in patent US20030083228A1, “Treatments for female sexual dysfunction and methods for identifying compounds useful for treating female sexual dysfunction” (priority 2001, published 2003).

Columns and labels:
melanocortin-4 receptors = melanocortin-4 receptors (Homo sapiens, UniProt P32245); assay: [125I]AGRP competition binding assay; conditions: particularly melanocortin-4 receptors
Excerpt: (§1) The first radioligand binding assay is an [^125I]AGRP competition binding assay. Compounds that attenuate binding of [^125I]AGRP or AGRP would be detected in this assay. It is noted that compounds can attenuate the binding of AGRP to melanocortin 3 and/or 4 receptors by binding to melanocortin 3 and/or 4 receptors or by binding to AGRP itself. The second radioligand binding assay is an assay using radiolabeled melanocortin ligands, for example, [^125I]norleucine D-phenylalanine melanocyte stimulating hormone ([^125I]NDP-MSH). Membranes prepared from cells expressing either melanocortin 3 or 4 receptors are used in the radioligand binding assays. The preparation and use of [^125I]AGRP and [^125I]NDP-MSH is well known in the art. See, for example, Dang et al., Molecular Endocrinology, 13, 148-155 (1999). In addition, the preparation and use of membranes from cells expressing either melanocortin 3 or 4 receptors are also well known in the art. See, Bass, et al., Molecular Pharmacology, 50, 709-715 (1996).
Specific Activity of [^125I]AGRP is 2200 Ci/mmole. The final concentration of [^125I]AGRP is 100 pM. Therefore, a 2 nM (20×) stock needs to be made in binding buffer. The concentration of [^125I]AGRP varies from 40-60 nM. [^125I]AGRP can be obtained from New England Nuclear, Boston, Mass.
(§2) The competition assay can be run using 96 well plates. […]

melanocortin receptors = assay: [125I]NDP-MSH competition binding assay
Excerpt: as §1
Specific Activity of [^125I]NDP-MSH is 2200 Ci/mmole. The final concentration of [^125I]NDP-MSH is 250 pM. Therefore, a 5 nM (20×) stock needs to be made in binding buffer. The concentration of [^125I]NDP-MSH varies from 40-60 nM. [^125I]NDP-MSH can be obtained from New England Nuclear, Boston, Mass.
as §2

MDA-MB-231 cells = assay: Inhibition of in vitro human breast tumor cell growth, ER-negative cell line; format: cell-based; conditions: MDA-MB-231 (ER-negative), 6 days incubation, direct cell counts
Experimental: The in vitro antiproliferative effects of (−)-cis-6-phenyl-5-[4-(2-pyrrolidin-1-yl-ethoxy)-phenyl]-5,6,7,8-tetrahydro-naphthalene-2-ol (PPTN) were tested using two types of human breast cancer cell lines: first, MCF-7 cells, which contain ER as well as progesterone receptors (PgR), and second, MDA-MB-231 cells, which lack ER and PgR, and enable the determination of an effect that is independent of the ER mechanism. The effect of PPTN on the growth of these different cell lines was determined by incubation of the cells with various compound concentrations for 6 days.
The antiproliferative effects were then determined by direct cell counts. PPTN inhibited the growth of the ER-positive cell line MCF-7.

Chain of melanocortin-4 receptors (P32245 whole entry): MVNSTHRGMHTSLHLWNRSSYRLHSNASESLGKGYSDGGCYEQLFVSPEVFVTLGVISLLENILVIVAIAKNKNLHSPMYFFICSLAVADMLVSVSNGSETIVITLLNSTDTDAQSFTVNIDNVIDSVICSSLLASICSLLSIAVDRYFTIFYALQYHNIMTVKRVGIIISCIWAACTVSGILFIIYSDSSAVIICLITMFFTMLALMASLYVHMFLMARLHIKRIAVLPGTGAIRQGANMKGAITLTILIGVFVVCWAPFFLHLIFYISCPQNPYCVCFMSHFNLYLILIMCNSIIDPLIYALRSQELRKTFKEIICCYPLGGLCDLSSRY

Compound	binding of agouti-related protein to melanocortin receptors (melanocortin-4 receptors)	binding of α-melanocyte stimulating hormone to melanocortin receptors (melanocortin receptors)	effect on cell proliferation (MDA-MB-231 cells)
O=[N+]([O-])c1ccc(N2C3c4ccccc4CCN3N(c3ccc([N+](=O)[O-])cc3)C3c4ccccc4CCN32)cc1 (stereo not drawn) [8,16-bis-(4-nitro-phenyl)-5,6,8,8a,13,14,16,16a-octahydro-[1,2,4,5]tetrazino[6,1-a;3,4-a′]diisoquinoline]	attenuates	does not attenuate	
Oc1ccc2c(c1)CC[C@H](c1ccccc1)[C@@H]2c1ccc(OCCN2CCCC2)cc1 [PPTN, (−)-cis-6-phenyl-5-[4-(2-pyrrolidin-1-yl-ethoxy)-phenyl]-5,6,7,8-tetrahydro-naphthalene-2-ol]			did not inhibit cell proliferation
